Columns and labels:
Type in all cases: biochemical
Rat brain synaptosomes = test: Neurotransmitter release from brain synaptosomes; conditions: 10 μM ligand; percentage of release with 10 μM (S)-(-)-nicotine or 300 μM TMA
Experimental: Neurotransmitter Release From Brain Synaptosomes
Neurotransmitter release was measured using techniques similar to those previously published (Bencherif M, et al . . . JPET279: 1413-1421, 1996).
Rat brain synaptosomes were prepared as follows: Female Sprague Dawley rats (100-200 g) were killed by decapitation after anesthesia with 70% CO2. Brains are dissected, and hippocampus, striatum, and thalamus isolated, and homogenized in 0.32 M sucrose containing 5 mM HEPES pH 7.4 using a glass/glass homogenizer. The tissue was then centrifuged for 1000×g for 10 minutes and the pellet discarded. The supernatant was centrifuged at 12000×g for 20 minutes. The resultant pellet was re-suspended in perfusion buffer (128 mM NaCl, 1.2 mM KH2PO4, 2.4 mM KCl, 3.2 mM CaCl2, 1.2 mM MgSO4, 25 mM HEPES, 1 mM Ascorbic acid, 0.01 mM pargyline HCl and 10 mM glucose pH 7.4) and centrifuged for 15 minutes at 25000×g. The final pellet was resuspended in perfusion buffer and placed in a water bath (37° C.) for 10 minutes. Radiolabeled neurotransmitter is added (30 μL ^3H DA, 20 μL ^3H NE, 10 μL ^3H glutamate) to achieve a final concentration of 100 nM, vortexed and placed in a water bath for additional 10 minutes. Tissue-loaded filters is placed onto 11-mm diameter Gelman A/E filters on an open-air support. After a 10-minute wash period, fractions are collected to establish the basal release and agonist applied in the perfusion stream. Further fractions were collected after agonist application to re-establish the baseline. The perfusate was collected directly into scintillation vials and released radioactivity was quantified using conventional liquid scintillation techniques. Release of neurotransmitter was determined in the presence of 10μM of various ligands and was expressed as a percentage of release obtained with a concentration of 10 μM (S)-(−)-nicotine or 300 μM TMA resulting in maximal effects.

rubidium ion flux = test: Determination of rubidium ion release (rubidium ion flux assay); conditions: rubidium ion released relative to 300 uM tetramethylammonium ion
Experimental: Determination of Rubidium Ion Release
Rubidium release was measured using the techniques described in Bencherif et al., JPET, 279: 1413-1421 (1996). Reported EC50 values are expressed in nM, and Ema, values represent the amount of rubidium ion released relative to 300 uM tetramethylammonium ion, on a percentage basis.

dopamine release = test: Determination of dopamine release; conditions: amount released relative to (S)-(-)-nicotine
Experimental: Determination of Dopamine Release
Dopamine release was measured using the techniques described in U.S. Pat. No. 5,597,919 to Dull et al. Release is expressed as a percentage of release obtained with a concentration of (S)-(−)-nicotine resulting in maximal effects. Reported EC50 values are expressed in nM, and Emax values represent the amount released relative to (S)-(−)-nicotine on a percentage basis.

SMILES: CNC(C)CC=Cc1cncc(C(F)(F)F)c1 (centres unmarked) [Sample No. 10, (4E)-N-methyl-5-(3-(5-trifluoromethylpyridin)yl)-4-penten-2-amine]
- neurotransmitter release Emax (Rat brain synaptosomes): 50%
- Emax in the rubidium ion flux assay (rubidium ion flux): 0%

SMILES: CC(N)CC=Cc1cncc(OC(C)C)c1 (centres unmarked) [Sample No. 12, (4E)-5-(3-(5-isopropoxypyridin)yl)-4-penten-2-amine hemigalactarate]
- neurotransmitter release Emax (Rat brain synaptosomes): 32%

SMILES: CN[C@@H](C)C/C=C/c1cc(OC(C)C)c[n+]([O-])c1 [Sample No. 5]
- neurotransmitter release Emax (Rat brain synaptosomes): 19%

SMILES: CNC(C)CC=Cc1ccc[n+]([O-])c1 (centres unmarked) [Sample No. 8, (4E)-N-methyl-5-(3-(1-oxopyridin)yl)-4-penten-2-amine]
- neurotransmitter release Emax (Rat brain synaptosomes): 9%

SMILES: CNCC/C=C/c1cncc(C(=O)NCc2ccccc2)c1 [Sample No. 2, (3E)-N-methyl-N-[3-(5-(N-benzylcarboxamido)pyridin)yl]-3-buten-1-amine]
- Emax for dopamine release (dopamine release): 12%

SMILES: CCSc1cncc(/C=C/CCNC)c1 [Sample No. 9, (3 E)-N-methyl-4-(3-(5-ethylthiopyridin)yl)-3-buten-1-amine hemigalactarate]
- Emax for dopamine release (dopamine release): 39%
- Emax in the rubidium ion flux assay (rubidium ion flux): 40%

SMILES: CNC(C)CC=Cc1cncc(O)c1 (centres unmarked) [Sample No. 13, (4E)-N-methyl-5-(3-(5-hydroxypyridin)yl)-4-penten-2-amine sesquioxalate]
- neurotransmitter release Emax (Rat brain synaptosomes): 80%

SMILES: CNCC/C=C/c1cncc(OCC(C)C)c1 [Sample No. 6, (3E)-N-methyl-4-(3-(5-isobutoxypyridin)yl)-3-buten-1-amine hemigalactarate]
- Emax for dopamine release (dopamine release): 25%
- Emax in the rubidium ion flux assay (rubidium ion flux): 15%

Reference: US6492399B1, “Pharmaceutical compositions and methods for use” (Targacept, Inc., priority 1998, dated 2002)
